Results published in US11389501B1, “Method for treating eye inflammation using anti-inflammatory composition having bioactive compound” (TCI CO., LTD., priority 2021, dated 2022).

Tests used:
Type in all cases: cell-based
VEGFA gene = experiment: qRT-PCR of VEGFA gene expression in blue light-irradiated human retinal pigment epithelial cells; settings: ARPE-19 cells, 0.0125 mg/ml, incubated 24 h, then blue light 15 min; control group = 100%, comparative group (blue light only) 109.47%
From the text: (§1) In the present embodiment, an RNA extraction kit, a reverse transcriptase, and a KAPA SYBR® FAST qPCR reagent kit were used in conjunction with a quantitative PCR instrument to determine the changes in expression level of the genes associated with eye protection and anti-inflammation in human retinal pigment epithelial cells treated with the peptide having the amino acid sequence of SEQ ID NO.: 1. Further, the efficacy of the bioactive compound obtained from the cowhide peptides of the present disclosure in resisting blue light and preventing inflammatory reactions was confirmed.
(§2) 1. Cell strain: Human retinal pigment epithelial cell ARPE-19 (purchased from ATCC, product number CRL-2302). […]
(§3) The cell membranes of each group of human retinal pigment epithelial cells (i.e., the control group, the comparative group, and the experimental group) resulted from the cell treatment stage were broken with cell lysates. […] Then the cDNA of each group was subjected to a quantitative real-time reverse transcription polymerase chain reaction (qRT-PCR) using the ABI StepOnePlus™ Real-time PCR system (Thermo Fisher Scientific), KAPA SYBR FAST (Sigma, USA, product number 38220000000) and the primers listed in Table 3 (SEQ 1D NO.: 2 to SEQ ID NO.: 9) to assess the expression of VEGFA gene. […] Gene quantification was performed using a 2^−ΔCt method. […]

IL-1β gene = experiment: qRT-PCR of IL-1β gene expression in blue light-irradiated human retinal pigment epithelial cells; settings: ARPE-19 cells, 0.0125 mg/ml, incubated 24 h, then blue light 15 min; control group = 100%, comparative group (blue light only) 109.21%
From the text: as §1, §2, §3

IL-8 gene = experiment: qRT-PCR of IL-8 gene expression in blue light-irradiated human retinal pigment epithelial cells; settings: ARPE-19 cells, 0.0125 mg/ml, incubated 24 h, then blue light 15 min; control group = 100%, comparative group (blue light only) 121.77%
From the text: as §1, §2, §3

## CC(C)C[C@H](NC(=O)[C@H](CO)NC(=O)[C@@H](NC(=O)[C@@H]1CCCN1C(=O)[C@H](CC(C)C)NC(=O)CNC(=O)[C@H](CO)NC(=O)[C@@H]1CCCN1C(=O)[C@H](CC(C)C)NC(=O)[C@H](CCCCN)NC(=O)C(N)C(C)O)C(C)C)C(=O)O (stereo partly drawn) [cowhide peptide, TKLPSGLPVSL]
VEGFA gene
  expression of VEGFA gene relative to the control group: 84.07%
IL-1β gene
  expression of IL-1β gene relative to the control group: 66.36%
IL-8 gene
  expression of IL-8 gene relative to the control group: 88.29%
